From publication PMC10706425, “Enhancing the Antimicrobial Properties of Peptides through Cell-Penetrating Peptide Conjugation: A Comprehensive Assessment” (International Journal of Molecular Sciences, 2023)

Assays:
[1] = test system: S. aureus (209P strain); assay: Antibacterial activity in liquid medium; assay type: cell-based, Staphylococcus aureus; conditions: 209P strain; Mueller–Hinton broth, 37 °C, 2% DMSO
From the text: (§1) Two S. aureus strains were used: a susceptible strain 209P and a clinical isolate strain 129B (resistant to antibiotics: benzylpenicillin, clindamycin, erythromycin, oxacillin, sulfamethoxazole, and vancomycin). Two MRSA strains were included: a susceptible strain ATCC 43300 (resistant to antibiotics: methicillin, oxacillin (beta-lactam antibiotics), ampicillin (https://www.atcc.org/products/43300 (accessed on 11 November 2023)) and a clinical isolate strain SA 180 (resistant to antibiotics: benzylpenicillin and oxacillin (beta-lactam antibiotics), ciprofloxacin, clindamycin, erythromycin, levomycetin, sulfamethoxazole, and vancomycin). One B. cereus was used: a susceptible strain, IP 5832. Two P. aeruginosa strains were included: a susceptible strain, ATCC 28753, and a resistant strain, 2943. Two E. coli strains were used: a susceptible strain, K12, and a susceptible strain, MG1655.
(§2) Determination of the growth for the bacteria S. aureus strain 209P, MRSA strain ATCC 43300, B. cereus strain IP 5832, P. aeruginosa strain ATCC 28753, and E. coli strain K12 was performed using Mueller–Hinton Broth (MHB) (Sigma-Aldrich, St. Louis, MO, USA). Bacteria of S. aureus (strain 129B) and MRSA (strain SA 180-F) were grown on the brain-heart infusion (BHI) medium, and bacteria of P. aeruginosa (strain 2943) and E. coli (strain MG1655) were grown on the LB medium. The preparation and co-incubation of peptides with bacteria were carried out as described previously. The samples were grown at 37 °C.

[2] = test system: E. coli (K12 strain); assay: Antibacterial activity in liquid medium; assay type: cell-based, Escherichia coli; conditions: K12 strain; Mueller–Hinton broth, 37 °C, 2% DMSO
From the text: as §1, §2

[3] = test system: bacteria; assay: Antibacterial activity of amyloidogenic fragments alone (bacteria not given); assay type: cell-based; conditions: Table 2 and Table S1
[4] = test system: MRSA (ATCC 43300 strain); assay: Antibacterial activity in liquid medium; assay type: cell-based, Methicillin-resistant Staphylococcus aureus; conditions: ATCC 43300 strain; Mueller–Hinton broth, 37 °C, 2% DMSO
From the text: as §1, §2

ITDFGIFIGL [I10L^P]
913 µM: Peptide Activity in Liquid Medium after 15 h of Incubation (Gentamicin as Positive Control) [1] | Peptide Activity in Liquid Medium after 15 h of Incubation (Gentamicin as Positive Control) [2] | Concentration with antibacterial activity, amyloidogenic fragment alone [3] | Peptide Activity in Liquid Medium after 15 h of Incubation (Gentamicin as Positive Control) [4]
